Data on 2 compounds can be found in paper PMC9029538, “Dosing Colistimethate Every 8 h Results in Higher Plasma Concentrations of Active Colistin Than Every 12-Hourly Dosing without Increase in Nephrotoxicity: A Phase 1 Pharmacokinetics Trial in Healthy Adult Volunteers” (Antibiotics, 2022).

Where a SMILES comes first, the peptide text is derived from it. Bridges are numbered along the chain shown (N, C = ends). [ ]: non-standard residue; d: D form. The star is where a group is joined. Heptanoyl(6-Me) = CC(C)CCCCC(=O)*; X1 = CC[C@H](C)CCCCC(=O)*; Dab = NCC[C@H](N)C(=O)O

In data set [1] the test system is A. baumannii or P. aeruginosa. Conditions: retrospective study, cited from earlier work. An excerpt: Whether the aerosolized administration of CMS translates into greater drug efficacy against MDROs in the management of HAP/VAP caused by MDROs, however, still remains a matter of controversy, as is the issue of the efficacy of colistin combination therapy. A retrospective study of pneumonia patients who received aerosolized colistin therapy for a median of 14 days reported the microbiological eradication of the causative MDRO (A. baumannii or P. aeruginosa) in 18 out of 21 cases. This high rate of eradication corroborates another retrospective study in which 37 out of 40 patients who re ...

Data set [2] in a line: Neurotoxicity (paresthesias, ataxia, SARA scores). The data set is classed as in vivo, healthy adult volunteers. The conditions noted are these: Cohort 1, 2.5 mg/kg q12h × 2 doses; Periods 1 and 3 combined; seven of eighteen. The method, then: (§1) Safety assessments for TEAEs were conducted, including physical examinations (including neurological evaluations), […], vital signs, clinical laboratory tests, selected biomarkers for acute kidney injury (see section on kidney biomarkers), spirometry, and ECG measurements (see Supplementary Data S5 and S6 for clinical laboratory evaluations and schedule of events). If symptoms of ataxia were present, SARA (Scale for the Assessment and Rating of Ataxia, according to Schmitz-Hübsch et al.) assessment forms were completed to assess their severity.

Data set [3] can be described thus: Nephrotoxicity (serum creatinine). It counts as in vivo, healthy adult volunteers. On the set-up: serum creatinine increase (absolute): unit not given here. Conditions: for serum creatinine increase (absolute) / serum creatinine increase (percent): 24 h post first dose. How it is done:
Serum samples for kidney biomarkers were obtained for serum cystatin C, NGAL, and serum β microglobulin levels. Urine samples were obtained for urine protein, creatinine, and microalbumin excretion (see Supplementary Tables S1–S10 and Data S1–S6).
as §1

Data set [4] in a line: clinical. Conditions: in vivo. How it is done:
(§2) During dosing Period 1, subjects in Cohorts 1, 2, and 3 received 2 to 3 doses of IV CMS (total exposure 5–10 mg/kg) based on the specific cohort regimen. During dosing Period 2, the same subjects then received 2 to 4 doses of 75 mg of CMS via aerosolized administration, and during dosing Period 3, subjects received a combination of IV and aerosolized CMS based on the specific cohort regimen. Each dosing period was followed by a washout period of at least 3 days (Table 1).
(§3) For all plasma PK collections, 3 mL samples of whole blood were drawn into collection tubes containing sodium heparin and placed immediately on ice at specified time intervals. […] The blood was centrifuged at 2500× g within 2 h of collection, and the plasma fraction was removed and frozen at −70 °C for shipment to the Analytical Pharmacology Laboratory at the University of Toledo.
(§4) The PK analysis was conducted using Phoenix™ WinNonlin® Version 6.2 (Pharsight, a Certara Company).
(§5) Concentration versus time profiles were investigated for each of the four colistin analytes. These profiles were augmented by the inclusion of estimated concentrations at additional time points, including dosing Period 1—immediately prior to the final IV dose; dosing Period 3—immediately prior to the final IV dose; and after the final IV dose. The following PK parameters were estimated for each: maximum observed concentration (Cmax), area under the plasma concentration versus time curve, AUC (e.g., AUC 0–inf), AUC 0–t) versus time curve, time to maximum observed concentration (Tmax), elimination half-life (t1/2), slope of the post-distributive terminal portion of plasma concentration versus time curve (Kel), total body clearance/bioavailability (CL/F), and the apparent steady-state volume of distribution/bioavailability ([…]). The concentrations of intravenously administered CMS, aerosolized drug, and both delivery methods used simultaneously were compared. In addition, the presence or absence of a proportionality dose-dependent effect was determined.

Data set [5] is described as follows: Plasma pharmacokinetics after IV CMS (Period 1). Conditions: human, in vivo, iv; for clearance: CL; for Vd: Vdss; for Tmax: median (min-max). The method, then: as §2, §3, §4, §5
Where [6] appears, read: Cohort 3, first of four subjects.
Where [7] appears, read: Cohort 3, fourth of four subjects.
[8] abbreviates: Cohort 3, second of four subjects.
[9] abbreviates: Cohort 3, third of four subjects.
Where [10] appears, read: 2.5 mg/kg, Period 1, Cohort 1: IV 2.5 mg/kg colistin base activity q12h x 2 doses, plasma after final dose, mean (SD), SD.
Setting [11] is: 2.5 mg/kg, Period 1, Cohort 2: IV 2.5 mg/kg colistin base activity q8h x 3 doses, plasma after final dose, mean (SD), SD.
Setting [12] is: 3.3 mg/kg, Period 1, Cohort 3: IV 3.3 mg/kg colistin base activity q8h x 3 doses, plasma after final dose, mean (SD), SD.

For the compound `CC[C@H](C)CCCCC(=O)N[C@@H](CCN)C(=O)N[C@H](C(=O)N[C@@H](CCN)C(=O)N[C@H]1CCNC(=O)[C@H]([C@@H](C)O)NC(=O)[C@H](CCN)NC(=O)[C@H](CCN)NC(=O)[C@H](CC(C)C)NC(=O)[C@@H](CC(C)C)NC(=O)[C@H](CCN)NC1=O)[C@@H](C)O` [colistin] (X1-[Dab]T[Dab][Dab][Dab][dL]L[Dab][Dab]T; lactam 4-C), the “patients with negative follow-up cultures” value in data set [1] (aerosolized colistin therapy) is given as 37 out of 40. The “microbiological eradication of the causative MDRO (cases)” value in data set [1] (pneumonia patients, aerosolized colistin for a median of 14 days) was 18 out of 21. For the same compound, the “subjects reporting self-limited perioral paresthesias” value in data set [2] is listed as 39%. For the same compound, in data set [3] (Cohort 3, after three doses of IV colistin 2.5 mg/kg q8h (so in the source)), the “subjects with reversible nephrotoxicity (elevated serum creatinine at 24 h post first dose)” value is listed as “four”. Besides, the “serum creatinine increase (absolute)” value in data set [3] (setting [6]) was 0.67; in data set [3] (setting [7]), 0.3; in data set [3] (setting [8]), 0.82; in data set [3] (setting [9]) it was 0.69. Besides, the “serum creatinine increase (percent)” value in data set [3] (setting [6]) is given as 95.7%; in data set [3] (setting [7]), 45.5%; in data set [3] (setting [8]) it was 82.0%; in data set [3] (setting [9]), 73.4%. The “time over which creatinine increases resolved” value in data set [3] (Cohort 3, ±4 days) was 10 days. Further, the “effect on serum creatinine” value in data set [3] (dose increased from 5 mg/kg/day (Cohort 1; 2.5 mg/kg q12h) to 7.5 mg/kg/day (Cohort 2; 2.5 mg/kg q8h)) is “did not result in increases in serum creatinine”.
Regarding `CC(C)CCCCC(=O)N[C@@H](CCN)C(=O)N[C@H](C(=O)N[C@@H](CCN)C(=O)N[C@H]1CCNC(=O)[C@H]([C@@H](C)O)NC(=O)[C@H](CCN)NC(=O)[C@H](CCN)NC(=O)[C@H](CC(C)C)NC(=O)[C@@H](CC(C)C)NC(=O)[C@H](CCN)NC1=O)[C@@H](C)O` [colistin B] ({Heptanoyl(6-Me)}-[Dab]T[Dab][Dab][Dab][dL]L[Dab][Dab]T; lactam 4-C), the “circulating plasma concentrations following aerosol administration alone” value in data set [4] was “no detectable concentrations”. In addition, the AUC(0-t) in data set [5] (setting [10]) worked out at 1940 ng·h/mL; in data set [5] (setting [11]) it was 3590 ng·h/mL; in data set [5] (setting [12]) it was 5680 ng·h/mL. The AUC(0-inf) worked out at 3290 ng·h/mL in data set [5] (setting [10]), 5150 ng·h/mL in data set [5] (setting [11]) and 7160 ng·h/mL in data set [5] (setting [12]). In addition, the clearance in data set [5] (setting [10]) was 96.8 mL/min; in data set [5] (setting [11]), 59 mL/min; in data set [5] (setting [12]), 58.2 mL/min. Also, the Cmax was found to be 570 ng/mL in data set [5] (setting [10]), 891 ng/mL in data set [5] (setting [11]) and 1390 ng/mL in data set [5] (setting [12]). Further, the Vd was 26.3 L in data set [5] (setting [10]), 18.1 L in data set [5] (setting [11]) and 17.3 L in data set [5] (setting [12]). The half-life in data set [5] (2.5 mg/kg, t1/2, Period 1, Cohort 1: IV 2.5 mg/kg colistin base activity q12h x 2 doses, plasma after final dose, mean (SD), SD) is 3.45 h; in data set [5] (2.5 mg/kg, t1/2, Period 1, Cohort 2: IV 2.5 mg/kg colistin base activity q8h x 3 doses, plasma after final dose, mean (SD), SD), 3.64 h; in data set [5] (3.3 mg/kg, t1/2, Period 1, Cohort 3: IV 3.3 mg/kg colistin base activity q8h x 3 doses, plasma after final dose, mean (SD), SD), 3.55 h; in data set [5] (elimination t1/2 (half-life, as stated in text), plasma), around 3.5 h. For the same compound, the Tmax in data set [5] (2.5 mg/kg, Period 1, Cohort 1: IV 2.5 mg/kg colistin base activity q12h x 2 doses, plasma after final dose) is 0.667 h; in data set [5] (2.5 mg/kg, Period 1, Cohort 2: IV 2.5 mg/kg colistin base activity q8h x 3 doses, plasma after final dose) it was 0.6 h; in data set [5] (3.3 mg/kg, Period 1, Cohort 3: IV 3.3 mg/kg colistin base activity q8h x 3 doses, plasma after final dose), 0.6 h.

As usually defined, the AUC(0-t) is the area under the concentration-time curve up to a stated or last time point. One may read the AUC(0-inf) as total exposure, with the tail of the curve extrapolated. One may read the clearance as a measure of how efficiently the substance is removed, as volume per time. The Cmax is the highest concentration seen after dosing. The Vd is the apparent volume that relates the amount in the body to the concentration in plasma or blood. A word on the half-life: it is the time needed for the level to fall by half in the phase considered. The term Tmax denotes the time at which the peak concentration occurs.
